This test has as its system MV-4-11 cells. The test can be described thus: Gene expression microarray analysis (Affymetrix PrimeView) and GSEA. In kind it is cell-based, human. Also noted: RFU PODN (11730768_x_at) / Fold change /veh PODN (11730768_x_at) / RFU LINC00158 (11744669_a_at) / Fold change /veh LINC00158 (11744669_a_at) / RFU DUSP10 (11751237_a_at) / Fold change /veh DUSP10 (11751237_a_at) / RFU ID3 (11757404_x_at) / Fold change /veh ID3 (11757404_x_at) / RFU PLEKHG5 (11737974_s_at) / Fold change /veh PLEKHG5 (11737974_s_at) / RFU LRRC4B (11730491_at) / Fold change /veh LRRC4B (11730491_at) / RFU GIMAP4 (11747438_a_at) / Fold change /veh GIMAP4 (11747438_a_at) / RFU KRT8 (11758183_x_at) / Fold change /veh KRT8 (11758183_x_at) / RFU CNN1 (11734310_a_at) / Fold change /veh CNN1 (11734310_a_at) / RFU VPS37D (11726825_at) / Fold change /veh VPS37D (11726825_at) / RFU C10orf10 (11716522_x_at) / Fold change /veh C10orf10 (11716522_x_at) / RFU KIR2DL2 /// KIR2DL4 /// KIR2DL5A /// KIR2DL5B /// KIR2DS1 /// KIR2DS2 /// KIR2DS3 /// KIR2DS4 /// KIR3DL3 /// KIR3DL3 /// KIR3DS1 (11738374_at) / Fold change /veh KIR2DL2 /// KIR2DL4 /// KIR2DL5A /// KIR2DL5B /// KIR2DS1 /// KIR2DS2 /// KIR2DS3 /// KIR2DS4 /// KIR3DL3 /// KIR3DL3 /// KIR3DS1 (11738374_at) / RFU C1QL1 (11718748_at) / Fold change /veh C1QL1 (11718748_at) / RFU TMPRSS4 (11747572_a_at) / Fold change /veh TMPRSS4 (11747572_a_at) / RFU HAMP (11756126_x_at) / Fold change /veh HAMP (11756126_x_at) / RFU RNFT2 (11725882_a_at) / Fold change /veh RNFT2 (11725882_a_at) / RFU NR4A2 (11747474_a_at) / Fold change /veh NR4A2 (11747474_a_at) / RFU ABCC12 (11746883_a_at) / Fold change /veh ABCC12 (11746883_a_at) / RFU TMEM136 (11760407_x_at) / Fold change /veh TMEM136 (11760407_x_at) / RFU CLDN22 /// WWC2 (11732394_at) / Fold change /veh CLDN22 /// WWC2 (11732394_at) / RFU HLA-DPB1 (11760878_x_at) / Fold change /veh HLA-DPB1 (11760878_x_at) / RFU SPINT1 (11716480_a_at) / Fold change /veh SPINT1 (11716480_a_at) / RFU GAP43 (11754022_s_at) / Fold change /veh GAP43 (11754022_s_at) / RFU A4GNT (11735810_at) / Fold change /veh A4GNT (11735810_at) / RFU PRB3 (11715151_x_at) / Fold change /veh PRB3 (11715151_x_at) / RFU TUBB4B (11761932_at) / Fold change /veh TUBB4B (11761932_at) / RFU CAPN14 (11732068_a_at) / Fold change /veh CAPN14 (11732068_a_at) / RFU TMCC2 (11721928_a_at) / Fold change /veh TMCC2 (11721928_a_at) / RFU IRGQ (11745062_a_at) / Fold change /veh IRGQ (11745062_a_at) / RFU FAM174B (11720279_a_at) / Fold change /veh FAM174B (11720279_a_at) / RFU TMPRSS4 (11748680_a_at) / Fold change /veh TMPRSS4 (11748680_a_at) / RFU FAM212B (11763350_a_at) / Fold change /veh FAM212B (11763350_a_at) / RFU PLEKHG5 (11743358_a_at) / Fold change /veh PLEKHG5 (11743358_a_at) / RFU ZSCAN30 (11745921_a_at) / Fold change /veh ZSCAN30 (11745921_a_at) / RFU CMKLR1 (11741424_a_at) / Fold change /veh CMKLR1 (11741424_a_at) / RFU LOC101060620 /// MAPK8IP1 (11723275_at) / Fold change /veh LOC101060620 /// MAPK8IP1 (11723275_at) / RFU SPTSSB (11747773_x_at) / Fold change /veh SPTSSB (11747773_x_at) / RFU PRSS12 (11739890_at) / Fold change /veh PRSS12 (11739890_at) / RFU BIN1 (11741810_x_at) / Fold change /veh BIN1 (11741810_x_at) / RFU WNT11 (11732464_a_at) / Fold change /veh WNT11 (11732464_a_at) / RFU C10orf10 (11716521_a_at) / Fold change /veh C10orf10 (11716521_a_at) / RFU C5orf56 (11738089_at) / Fold change /veh C5orf56 (11738089_at) / RFU CYB561 (11721691_x_at) / Fold change /veh CYB561 (11721691_x_at) / RFU ANKRD19P (11752326_a_at) / Fold change /veh ANKRD19P (11752326_a_at) / RFU OR2T12 /// OR2T33 /// OR2T8 (11738714_s_at) / Fold change /veh OR2T12 /// OR2T33 /// OR2T8 (11738714_s_at) / RFU VCAN (11748164_a_at) / Fold change /veh VCAN (11748164_a_at) / RFU JSRP1 (11732532_at) / Fold change /veh JSRP1 (11732532_at) / RFU KRTAP10-11 (11738290_x_at) / Fold change /veh KRTAP10-11 (11738290_x_at) / RFU MYO3A (11730013_a_at) / Fold change /veh MYO3A (11730013_a_at) / RFU EBF3 (11725865_a_at) / Fold change /veh EBF3 (11725865_a_at) / RFU CAMK2N1 (11719241_x_at) / Fold change /veh CAMK2N1 (11719241_x_at) / RFU C5orf56 (11738088_a_at) / Fold change /veh C5orf56 (11738088_a_at) / RFU OLFML3 (11715873_a_at) / Fold change /veh OLFML3 (11715873_a_at) / RFU LOC100653217 /// NTM (11731650_a_at) / Fold change /veh LOC100653217 /// NTM (11731650_a_at) / RFU MAPK11 (11762145_a_at) / Fold change /veh MAPK11 (11762145_a_at) / RFU FIZ1 (11724087_x_at) / Fold change /veh FIZ1 (11724087_x_at) / RFU OASL (11726364_x_at) / Fold change /veh OASL (11726364_x_at) / RFU SOX15 (11748057_x_at) / Fold change /veh SOX15 (11748057_x_at) / RFU CD79A (11719716_a_at) / Fold change /veh CD79A (11719716_a_at) / RFU HIST1H1D (11736915_at) / Fold change /veh HIST1H1D (11736915_at) / RFU CASKIN2 (11723855_a_at) / Fold change /veh CASKIN2 (11723855_a_at) / RFU LOC730098 (11760151_x_at) / Fold change /veh LOC730098 (11760151_x_at) / RFU OR4N2 (11742367_at) / Fold change /veh OR4N2 (11742367_at) / RFU PRRT2 (11749266_a_at) / Fold change /veh PRRT2 (11749266_a_at) / RFU SNX32 (11753110_a_at) / Fold change /veh SNX32 (11753110_a_at) / RFU CDHR5 (11726645_a_at) / Fold change /veh CDHR5 (11726645_a_at) / RFU RCAN1 (11760418_a_at) / Fold change /veh RCAN1 (11760418_a_at) / RFU FAM167A (11723789_a_at) / Fold change /veh FAM167A (11723789_a_at) / RFU FAM26E (11764081_at) / Fold change /veh FAM26E (11764081_at) / RFU ISYNA1 (11749810_s_at) / Fold change /veh ISYNA1 (11749810_s_at) / RFU ACY1 (11761880_at) / Fold change /veh ACY1 (11761880_at) / RFU 11764098_at / Fold change /veh 11764098_at / RFU SAMD14 (11745864_x_at) / Fold change /veh SAMD14 (11745864_x_at) / RFU NPB (11741838_a_at) / Fold change /veh NPB (11741838_a_at) / RFU TMPRSS6 (11731388_a_at) / Fold change /veh TMPRSS6 (11731388_a_at) / RFU KRTAP10-2 (11738614_at) / Fold change /veh KRTAP10-2 (11738614_at) / RFU ARHGAP8 /// PRR5-ARHGAP8 (11727945_x_at) / Fold change /veh ARHGAP8 /// PRR5-ARHGAP8 (11727945_x_at) / RFU KRTAP5-7 /// NADSYN1 (11734609_at) / Fold change /veh KRTAP5-7 /// NADSYN1 (11734609_at) / RFU RASL12 (11751679_a_at) / Fold change /veh RASL12 (11751679_a_at) / RFU CDKN2B (11736163_a_at) / Fold change /veh CDKN2B (11736163_a_at) / RFU PRF1 (11729649_at) / Fold change /veh PRF1 (11729649_at) / RFU, ZNF638 /// ZNF638-IT1 / Fold change vs veh, ZNF638 /// ZNF638-IT1 / RFU, PANK3 / Fold change vs veh, PANK3 / RFU, SH3YL1 / Fold change vs veh, SH3YL1 / RFU, ZEB2 / Fold change vs veh, ZEB2 / RFU, NRIP1 / Fold change vs veh, NRIP1 / RFU, PTTG1IP / Fold change vs veh, PTTG1IP / RFU, CAPN2 / Fold change vs veh, CAPN2 / RFU, MED14 / Fold change vs veh, MED14 / RFU, SNORA58 / Fold change vs veh, SNORA58 / RFU, C1orf63 / Fold change vs veh, C1orf63 / RFU, LRRFIP1 / Fold change vs veh, LRRFIP1 / RFU, NDUFAF7 / Fold change vs veh, NDUFAF7 / RFU, SLC12A2 / Fold change vs veh, SLC12A2 / RFU, IBTK / Fold change vs veh, IBTK / RFU, ESF1 / Fold change vs veh, ESF1 / Fold change vs veh, TMEM50B / RFU, TAOK1 / Fold change vs veh, TAOK1 / RFU, ACBD3 / Fold change vs veh, ACBD3 / RFU, TMA16 / Fold change vs veh, TMA16 / RFU, RWDD3 / Fold change vs veh, RWDD3 / RFU, BCAT1 / Fold change vs veh, BCAT1 / RFU, EDEM3 / Fold change vs veh, EDEM3 / RFU, TMEM33 / Fold change vs veh, TMEM33 / RFU, WDR75 / Fold change vs veh, WDR75 / RFU, AHCTF1 / Fold change vs veh, AHCTF1 / RFU, TFRC / Fold change vs veh, TFRC / RFU, ZDHHC17 / Fold change vs veh, ZDHHC17 / RFU, NOM1 / Fold change vs veh, NOM1 / RFU, ARL8B / Fold change vs veh, ARL8B / RFU, ZBTB11 / Fold change vs veh, ZBTB11 / RFU, TAMM41 / Fold change vs veh, TAMM41 / RFU, KIAA1704 /// LOC100996395 / Fold change vs veh, KIAA1704 /// LOC100996395 / RFU, ING1 / Fold change vs veh, ING1 / RFU, TRMT61B / Fold change vs veh, TRMT61B / RFU, FUBP3 / Fold change vs veh, FUBP3 / RFU, TP53 / Fold change vs veh, TP53 / RFU, TNKS2 / Fold change vs veh, TNKS2 / RFU, ZFP14 / Fold change vs veh, ZFP14 / RFU, ACTR2 / Fold change vs veh, ACTR2 / RFU, PPP3R1 / Fold change vs veh, PPP3R1 / RFU, PIK3R1 / Fold change vs veh, PIK3R1 / RFU, HNRNPA1 / Fold change vs veh, HNRNPA1 / RFU, RNF170 / Fold change vs veh, RNF170 / RFU, ZNF28 / Fold change vs veh, ZNF28 / RFU, RNGTT / Fold change vs veh, RNGTT / RFU, OGT / Fold change vs veh, OGT / RFU, BRD1 / Fold change vs veh, BRD1 / RFU, MARS / Fold change vs veh, MARS / RFU, ZNF655 / Fold change vs veh, ZNF655 / RFU, FAHD1 / Fold change vs veh, FAHD1 / RFU, BDP1 / Fold change vs veh, BDP1 / RFU, LRRCC1 / Fold change vs veh, LRRCC1 / RFU, ARID1A / Fold change vs veh, ARID1A / RFU, ZNF146 / Fold change vs veh, ZNF146 / RFU, ZNF330 / Fold change vs veh, ZNF330 / RFU, GPN3 / Fold change vs veh, GPN3 / RFU, C9orf123 / Fold change vs veh, C9orf123 / RFU, N4BP2L2 / Fold change vs veh, N4BP2L2 / RFU, ARFIP1 / Fold change vs veh, ARFIP1 / RFU, FAM179B / Fold change vs veh, FAM179B / RFU, BCL10 / Fold change vs veh, BCL10 / RFU, UHRF1BP1L / Fold change vs veh, UHRF1BP1L / RFU, BET1 / Fold change vs veh, BET1 / RFU, CNOT2 / Fold change vs veh, CNOT2 / RFU, ZNF268 / Fold change vs veh, ZNF268 / Fold change vs veh, ZNF507 / RFU, DGCR2 / Fold change vs veh, DGCR2 / RFU, WDSUB1 / Fold change vs veh, WDSUB1 / Fold change vs veh, HSP90B1 /// MIR3652 / RFU, ADSS / Fold change vs veh, ADSS / RFU, GK / Fold change vs veh, GK / RFU, ZNF148 / Fold change vs veh, ZNF148 / RFU, TAF9 / Fold change vs veh, TAF9 / RFU, SLC1A5 / Fold change vs veh, SLC1A5 / RFU, SLMO2 / Fold change vs veh, SLMO2 / RFU, ABCC4 / Fold change vs veh, ABCC4 / RFU, LOC101060439 /// RAP1B / Fold change vs veh, LOC101060439 /// RAP1B / RFU, RFX7 / Fold change vs veh, RFX7 / RFU, GTPBP10 / Fold change vs veh, GTPBP10 / RFU, CNEP1R1 / Fold change vs veh, CNEP1R1 / RFU, BIVM-ERCC5 /// ERCC5 / Fold change vs veh, BIVM-ERCC5 /// ERCC5 / RFU, ILF3 / Fold change vs veh, ILF3 / RFU 11762660_at / Fold change /veh 11762660_at / RFU VCAN (11757783_s_at) / Fold change /veh VCAN (11757783_s_at) / RFU DDX43 (11728927_at) / Fold change /veh DDX43 (11728927_at) / RFU KRT8 (11758188_x_at) / Fold change /veh KRT8 (11758188_x_at) / RFU NKD1 (11759106_at) / Fold change /veh NKD1 (11759106_at) / RFU SRD5A1 (11742802_a_at) / Fold change /veh SRD5A1 (11742802_a_at) / RFU TPSAB1 /// TPSB2 (11721975_s_at) / Fold change /veh TPSAB1 /// TPSB2 (11721975_s_at) / RFU GSTM3 (11746129_a_at) / Fold change /veh GSTM3 (11746129_a_at) / RFU IL23R (11737362_x_at) / Fold change /veh IL23R (11737362_x_at) / RFU TMEM51 (11727254_a_at) / Fold change /veh TMEM51 (11727254_a_at) / RFU PIWIL2 (11732686_x_at) / Fold change /veh PIWIL2 (11732686_x_at) / RFU ORM1 (11744905_x_at) / Fold change /veh ORM1 (11744905_x_at) / RFU CCDC152 (11743942_at) / Fold change /veh CCDC152 (11743942_at) / RFU ECM1 (11717891_a_at) / Fold change /veh ECM1 (11717891_a_at) / RFU IL23R (11748794_a_at) / Fold change /veh IL23R (11748794_a_at) / RFU TNFAIP8L3 (11732012_x_at) / Fold change /veh TNFAIP8L3 (11732012_x_at) / RFU MBOAT4 (11741988_at) / Fold change /veh MBOAT4 (11741988_at) / RFU 11764193_at / Fold change /veh 11764193_at / RFU TMEM53 (11763286_at) / Fold change /veh TMEM53 (11763286_at) / RFU MAGEB2 (11727129_at) / Fold change /veh MAGEB2 (11727129_at) / RFU TMEM200A (11744735_a_at) / Fold change /veh TMEM200A (11744735_a_at) / RFU CCDC152 (11751479_a_at) / Fold change /veh CCDC152 (11751479_a_at) / RFU FAM211A (11726209_a_at) / Fold change /veh FAM211A (11726209_a_at) / RFU RGS16 (11746705_a_at) / Fold change /veh RGS16 (11746705_a_at) / RFU VCAN (11755009_s_at) / Fold change /veh VCAN (11755009_s_at) / RFU RHOB (11743442_s_at) / Fold change /veh RHOB (11743442_s_at) / RFU RGS16 (11720943_a_at) / Fold change /veh RGS16 (11720943_a_at) / RFU RGS16 (11720944_at) / Fold change /veh RGS16 (11720944_at) / RFU, VPS4B / Fold change vs veh, VPS4B / RFU, CREB1 / Fold change vs veh, CREB1 / RFU, DNAJC13 / Fold change vs veh, DNAJC13 / RFU, GNAQ / Fold change vs veh, GNAQ / RFU, CDK5R1 / Fold change vs veh, CDK5R1 / RFU, ZRANB3 / Fold change vs veh, ZRANB3 / RFU, CUL4A / Fold change vs veh, CUL4A / RFU, CCNY / Fold change vs veh, CCNY / RFU, UFL1 / Fold change vs veh, UFL1 / RFU, COG3 / Fold change vs veh, COG3 / RFU, DIAPH2 / Fold change vs veh, DIAPH2 / RFU, SKA2 / Fold change vs veh, SKA2 / RFU, AFF3 / Fold change vs veh, AFF3 / RFU, LMF1 / Fold change vs veh, LMF1 / RFU, IPO11 / Fold change vs veh, IPO11 / RFU, DFFB / Fold change vs veh, DFFB / RFU, FOXP1 / Fold change vs veh, FOXP1 / RFU, CARD8 / Fold change vs veh, CARD8 / RFU, STRN3 / Fold change vs veh, STRN3 / RFU, ADK / Fold change vs veh, ADK / RFU, RASSF2 / Fold change vs veh, RASSF2 / RFU, WIPF1 / Fold change vs veh, WIPF1 / RFU, LARP1B / Fold change vs veh, LARP1B / RFU, RASA1 / Fold change vs veh, RASA1 / RFU, RB1 / Fold change vs veh, RB1 / RFU, PPFIA1 / Fold change vs veh, PPFIA1 / RFU, MAT2A / Fold change vs veh, MAT2A / RFU, CCT5 / Fold change vs veh, CCT5 / RFU, WDR92 / Fold change vs veh, WDR92 / RFU, CUX1 / Fold change vs veh, CUX1 / RFU, TTC7A / Fold change vs veh, TTC7A / RFU, TMEM135 / Fold change vs veh, TMEM135 / RFU, DEPTOR / Fold change vs veh, DEPTOR / RFU, CPM / Fold change vs veh, CPM / RFU, DNAJB6 / Fold change vs veh, DNAJB6 / RFU, CACNA2D3 / Fold change vs veh, CACNA2D3 / RFU, DTX4 / Fold change vs veh, DTX4 / RFU, TFCP2 / Fold change vs veh, TFCP2 / RFU, GMCL1 /// GMCL1P1 / Fold change vs veh, GMCL1 /// GMCL1P1 / RFU, AEBP2 / Fold change vs veh, AEBP2 / RFU, SNHG1 /// SNORD22 /// SNORD25 /// SNORD26 /// SNORD27 /// SNORD28 /// SNORD29 /// SNORD31 / Fold change vs veh, SNHG1 /// SNORD22 /// SNORD25 /// SNORD26 /// SNORD27 /// SNORD28 /// SNORD29 /// SNORD31 / Fold change (Aza/veh), C12orf56 (ProbeSet 11735607_a_at) / Fold change (ACY-1035/veh), C12orf56 (ProbeSet 11735607_a_at) / Fold change (Aza/veh), FGFR1OP (ProbeSet 11751329_s_at) / Fold change (ACY-1035/veh), FGFR1OP (ProbeSet 11751329_s_at) / Fold change (Aza/veh), VPS36 (ProbeSet 11739960_a_at) / Fold change (ACY-1035/veh), VPS36 (ProbeSet 11739960_a_at) / RFU SYPL1 (11715823_x_at) / Fold change /veh SYPL1 (11715823_x_at) / RFU IGFBP7 (11715501_s_at) / Fold change /veh IGFBP7 (11715501_s_at) / RFU REEP3 (11722064_at) / Fold change /veh REEP3 (11722064_at) / RFU IGLL1 (11728026_x_at) / Fold change /veh IGLL1 (11728026_x_at): dose or concentration left out as unconfirmed. The settings on record: MV-4-11 cells, 48 hours.

These results are taken from paper PMC5218480 (PLoS ONE, 2017).

For the compound `Nc1ncn([C@@H]2O[C@H](CO)[C@@H](O)[C@H]2O)c(=O)n1` [azacitidine], the “RFU LOC100653217 /// NTM (11731650_a_at)” value turned out to be 11.58 RFU.
